Experimental data: patent US11427567B2, “Imidazolyl pyrimidinylamine compounds as CDK2 inhibitors” (Incyte Corporation, priority 2019, dated 2022)

target: CDK2/Cyclin E1 (Homo sapiens (Human), UniProt P24941); assay: CDK2/Cyclin E1 HTRF enzyme activity assay (Example A); format: biochemical; details: 1 mM ATP
Description: Assays were conducted in white 384-well polystyrene plates in a final reaction volume of 8 μL. […] HTRF signals were read after 1 hour at room temperature on a PHERAstar FS plate reader (BMG Labtech). Data was analyzed with IDBS XLFit and GraphPad Prism 5.0 software using a three or four parameter dose response curve to determine IC50 for each compound.

IC50, ≤ 50 nM:
CCNCc1ccc(-n2cc(-c3nc(NC4CCN(S(C)(=O)=O)CC4)ncc3C(F)(F)F)nc2C)c(F)c1 [Example 359, 4-(1-(4-((Ethylamino)methyl)-2-fluorophenyl)-2-methyl-1H-imidazol-4-yl)-N-(1-(methylsulfonyl)piperidin-4-yl)-5-(trifluoromethyl)pyrimidin-2-amine]
CN(C)CCOc1ccc(-n2cnc(-c3nc(NC4CCN(S(C)(=O)=O)CC4)ncc3C(F)(F)F)c2)c(C(F)(F)F)n1 [Example 72, 4-(1-(6-(2-(Dimethylamino)ethoxy)-2-(trifluoromethyl)pyridin-3-yl)-1H-imidazol-4-yl)-N-(1-(methylsulfonyl)piperidin-4-yl)-5-(trifluoromethyl)pyrimidin-2-amine]
Cc1ccc(-n2cnc(-c3nc(N[C@H]4CCN(S(=O)(=O)c5ccn(C)n5)C[C@H]4C)ncc3C(F)(F)F)c2)c(C#N)n1 [Example 154, 6-Methyl-3-(4-(2-(((3R,4S)-3-methyl-1-((1-methyl-1H-pyrazol-3-yl)-sulfonyl)piperidin-4-yl)amino)-5-(trifluoromethyl)-pyrimidin-4-yl)-1H-imidazol-1-yl)picolinonitrile]
CC(C)NCc1cccc(-n2cnc(-c3nc(NC4CCN(S(C)(=O)=O)CC4)ncc3C(F)(F)F)c2)c1Cl [Example 360, 4-(1-(2-Chloro-3-((isopropylamino)meth-yl)phenyl)-1H-imidazol-4-yl)-N-(1-(methylsulfonyl)piperidin-4-yl)-5-(trifluoromethyl)pyrimi-din-2-amine]
CS(=O)(=O)N1CCC(Nc2ncc(C(F)(F)F)c(-c3cn(-c4ccc5cccnc5c4Br)cn3)n2)CC1 [Example 163, 4-(1-(8-Bromoquinolin-7-yl)-1H-imidazol-4-yl)-N-(1-(methyl-sulfonyl)piperidin-4-yl)-5-(trifluoromethyl)-pyrimidin-2-amine]
CS(=O)(=O)N1CCC(Nc2ncc(C(F)(F)F)c(-c3cn(-c4ccc(CN5CCCC5)cc4C#N)cn3)n2)CC1 [Example 346, 2-(4-(2-((1-(Methylsulfonyl)piperidin-4-yl)amino)-5-(trifluoromethyl)pyrimidin-4-yl)-1H-imidazol-1-yl)-5-(pyrrolidin-1-ylmethyl)benzonitrile]
C[C@@H]1CN(S(C)(=O)=O)CC[C@@H]1Nc1ncc(C(F)(F)F)c(-c2cn(-c3ccc(C4CCCCN4)cc3Cl)cn2)n1 (single isomer, unassigned) [Example 278]
COc1nccc(-n2cnc(-c3nc(NC4CCN(S(C)(=O)=O)CC4)ncc3C(F)(F)F)c2)c1C#N [Example 291, 2-Methoxy-4-(4-(2-((1-(methylsulfonyl)piperidin-4-yl)amino)-5-(trifluoromethyl)pyrimidin-4-yl)-1H-imidazol-1-yl)nicotinonitrile]
C[C@@H]1CN(S(C)(=O)=O)CC[C@@H]1Nc1ncc(C(F)(F)F)c(-c2cn(CC(C)(C)O)cn2)n1 [Example 327, 2-Methyl-1-(4-(2-(((3R,4S)-3-methyl-1-(methylsulfonyl)piperidin-4-yl)amino)-5-(trifluoromethyl)pyrimidin-4-yl)-1H-imidazol-1-yl)propan-2-ol]
CS(=O)(=O)N1CCC(Nc2ncc(C(F)(F)F)c(-c3cn(-c4ccc(Cn5ccnn5)cc4Cl)cn3)n2)CC1 [Example 242, 4-(1-(4-((1H-1,2,3-Triazol-1-yl)methyl)-2-chlorophenyl)-1H-imidazol-4-yl)-N-(1-(methylsulfonyl)piperidin-4-yl)-5-(trifluoromethyl)pyrimidin-2-amine]
Cc1nc(-c2nc(NC3CCN(S(C)(=O)=O)CC3)ncc2C(F)(F)F)cn1-c1ccc(C2CN(C[C@@H](C)O)C2)cc1F [Example 421, (R)-1-(3-(3-Fluoro-4-(2-methyl-4-(2-((1-(methylsulfonyl)piperidin-4-yl)amino)-5-(trifluoromethyl)pyrimidin-4-yl)-1H-imidazol-1-yl)phenyl)azetidin-1-yl)propan-2-ol]
Cc1nc(-c2nc(NC3CCN(S(C)(=O)=O)CC3)ncc2C(F)(F)F)cn1-c1ccc(CN2CC(C(C)(C)O)C2)cc1F [Example 282, 2-(1-(3-Fluoro-4-(2-methyl-4-(2-((1-(methylsulfonyl)piperidin-4-yl)amino)-5-(trifluoromethyl)pyrimidin-4-yl)-1H-imidazol-1-yl)benzyl)azetidin-3-yl)propan-2-ol]
CS(=O)(=O)N1CCC(Nc2ncc(C(F)(F)F)c(-c3cn(-c4ccc(CN5CC(F)(F)C5)cc4Cl)cn3)n2)CC1 [Example 193, 4-(1-(2-Chloro-4-((3,3-difluoroazetidin-1-yl)methyl)phenyl)-1H-imidazol-4-yl)-N-(1-(methylsulfonyl)-piperidin-4-yl)-5-(trifluoromethyl)-pyrimidin-2-amine]
CS(=O)(=O)N1CCC(Nc2ncc(C(F)(F)F)c(-c3cn(-c4ccc(CN5CC[C@@H](O)C5)cc4Cl)cn3)n2)CC1 [Example 205]
CNCCN(C)c1ccc(-n2cnc(-c3nc(NC4CCN(S(C)(=O)=O)CC4)ncc3C(F)(F)F)c2)c(C#N)c1 [Example 431, 5-(Methyl(2-(methylamino)ethyl)amino)-2-(4-(2-((1-(methylsulfonyl)piperidin-4-yl)amino)-5-(trifluoromethyl)pyrimidin-4-yl)-1H-imidazol-1-yl)benzonitrile]
CN1CCN(c2ccc(-n3cnc(-c4nc(NC5CCN(S(C)(=O)=O)CC5)ncc4C(F)(F)F)c3)c(Cl)c2)CC1=O [Example 142, 4-(3-Chloro-4-(4-(2-((1-(methyl-sulfonyl)piperidin-4-yl)amino)-5-(trifluoromethyl)-pyrimidin-4-yl)-1H-imidazol-1-yl)phenyl)-1-methylpiperazin-2-one]
Cn1cnc(-c2nc(NC3CCN(S(C)(=O)=O)CC3)ncc2C(F)(F)F)c1Cl [Example 14, 4-(5-Chloro-1-methyl-1H-imidazol-4-yl)-N-(1-(methylsulfonyl)piperidin-4-yl)-5-(trifluoromethyl)pyrimidin-2-amine]
CNCc1ccc(-n2cnc(-c3nc(NC4CCN(S(C)(=O)=O)CC4)ncc3C#N)c2)c(Cl)c1 [Example 226, 4-(1-(2-Chloro-4-((methylamino)-methyl)phenyl)-1H-imidazol-4-yl)-2-((1-(methylsulfonyl)-piperidin-4-yl)-amino)pyrimidine-5-carbonitrile]
Cc1nc(-c2nc(NC3CCN(S(C)(=O)=O)CC3)ncc2C(F)(F)F)cn1-c1ccc(N2CCC(C)(N3CCCC3)CC2)cc1F [Example 414, 4-(1-(2-Fluoro-4-(4-methyl-4-(pyrrolidin-1-yl)piperidin-1-yl)phenyl)-2-methyl-1H-imidazol-4-yl)-N-(1-(methylsulfonyl)piperidin-4-yl)-5-(trifluoromethyl)pyrimidin-2-amine]
CS(=O)(=O)N1CC[C@@H](Nc2ncc(C(F)(F)F)c(-c3cn(CC(F)F)cn3)n2)[C@H](F)C1 [Example 331, 4-(1-(2,2-Difluoroethyl)-1H-imidazol-4-yl)-N-((3R,4R)-3-fluoro-1-(methylsulfonyl)piperidin-4-yl)-5-(trifluoromethyl)pyrimidin-2-amine]
